{
  "source": "patent US4459232A",
  "about": "“Imidazo[1,2-c][1,3]benzodiazepines” (Ciba-Geigy Corporation, priority 1982, dated 1984)",
  "key": {"α-adrenergic": {"system": "α-adrenergic", "assay": "α-adrenergic blocking activity in vitro", "type": "biochemical"}, "monkey": {"system": "monkey", "assay": "extrapyramidal side effects (dyskinesias, dystonias) in the monkey", "type": "in vivo"}, "rats": {"system": "rats", "assay": "conditioned avoidance behavior (lever press to avoid foot shock) in rats", "type": "in vivo", "conditions": "Rattus norvegicus, oral, read-out: oral dose that disrupts avoidance behavior (decreases avoidance responses)", "protocol": "(§1) Each lever press postpones the shock for 30 seconds. Whenever the animal fails to press the lever once within said period, brief (0.5 sec.) shocks are delivered at 15 second intervals until the animal again presses the lever. Under control conditions the animals press the lever at a moderately steady rate and seldom receive more than five or six shocks during a 25-minute (rats) and up to 4-hour experimental session. Said compounds evaluated for neuroleptic activity, are administered to the animals 30, 90, 210 minutes prior to the experimental session and block the learned conditioned avoidance behavior, manifested by a decrease in avoidance responding with a marked increase in shocks taken by the animal. Both the avoidance responses and failures (shocks received) are recorded separately for evaluation.\n(§2) Indicative of the antipsychotic utility of the compounds of this invention, e.g., the compound of example 1, namely 5-(4-methyl-1-piperazinyl)-11H-imidazo[1,2-c][1,3]benzodiazepine disrupts avoidance behavior, e.g. decreases avoidance responses in rats and monkeys at an oral dose of 30 mg/kg or lower."}, "[1]": {"molecular_target": "histamine activation of adenylate cyclase", "assay": "inhibition of histamine activation of adenylate cyclase in vesicles of guinea pig cerebral cortex", "type": "biochemical", "conditions": "50 micromolar histamine", "protocol": "Finally, said antihistaminic properties can be shown in vitro, e.g., according to Chasin et al., J. Neurochem. 22, 1031 (1974). Vesicles from a cell free preparation of guinea pig cerebral cortex are preincubated with ^3 H-adenine to form endogenous ^3 H-adenosine triphosphate. The vesicles are then incubated with 50 micromolar histamine to activate ^3 H-cyclic adenosine monophosphate synthesis in the absence or presence of the test compound at a concentration between 0.01 and 100 micromolar. When said compound is active, it inhibits the histamine activation of adenylate cyclase. The IC50 represents the concentration at which histamine activation is inhibited by 50%."}, "monkeys": {"system": "monkeys", "assay": "conditioned avoidance behavior (lever press to avoid foot shock) in monkeys", "type": "in vivo, squirrel monkey", "conditions": "Primates, oral, read-out: oral dose that disrupts avoidance behavior (decreases avoidance responses)", "protocol": "as §1, §2"}},
  "data": [
    {"smiles": "CN1CCN(C2=Nc3ccccc3Cc3nccn32)CC1", "note": "[example 1, 5-(4-methyl-1-piperazinyl)-11H-imidazo[1,2-c][1,3]benzodiazepine]", "values": [
      {"measurement": "α-adrenergic blocking activity", "setting": "α-adrenergic", "result": "only minimal α-adrenergic blocking activity"},
      {"measurement": "extrapyramidal side effects, e.g. dyskinesias and dystonias", "setting": "monkey", "result": "essentially free of extrapyramidal side effects"},
      {"measurement": "minimal effective dose", "setting": "rats", "result": "≤ 30", "unit": "mg/kg"},
      {"measurement": "IC50", "setting": "[1]", "result": "~1000", "unit": "nM"},
      {"measurement": "minimal effective dose", "setting": "monkeys", "result": "≤ 30", "unit": "mg/kg"}
    ]}
  ]
}
